Read-outs that look alike come from different tables or passages of the source. Positions of bridges follow the written chain, without caps; N, C: chain ends. Non-standard residues stand in square brackets, D forms with d. Residues, ends and D or L forms follow the SMILES beside them. *: point of attachment. Nonanoyl = CCCCCCCCC(=O)*; X1 = CC[C@H](C)CCCCC(=O)*; Dab = NCC[C@H](N)C(=O)O

Assay [1] has as its system Salmonella typhimurium ATCC 14028. It is filed as cell-based. As for the experimental part:
(§1) The antibacterial activity of the lipopeptides was measured in sterile 96-well plates (Corning Costar 3598 microtiter plates). Samples of a final volume of 200 μL were prepared as follows: aliquots (100 μL) of a suspension containing bacteria at a concentration of 10^5 colony-forming units/mL in culture medium (MH, Muller Hinton Broth, Difco, USA), adjusted at pH 7.4, were added to 100 μL of solution containing the peptide prepared from a stock solution of 1 mg/mL peptide in water in serial 2-fold dilutions in MH broth adjusted to pH 7.4 (Jorgensen and Turnide, 2003).
(§2) Inhibition of bacterial growth was determined by measuring the absorbance at 492 nm with a Absorbance Microplate reader ELx 800 (Bio-tek Instruments) after an incubation of 24-48 h at 37° C. Antibacterial activities are expressed as the MIC, the concentration at which no growth is observed after 24-48 h of incubation.
(§3) Microorganisms were cultured on Tryptycase Soy Broth (Pronadisa, Barcelona) and incubated at 37° C. until bacterial growth was observed. Then a loopful was streaked on Trypticase Soy Agar (Pronadisa, Barcelona) and incubated at 37° C. until colony formation occurred. Microorganisms were preserved on cryobilles (EAS laboratoire, France) at −20° C.
(§4) Bacterial strains used for the antibacterial activity tests were obtained from the American Type Culture Collection (ATCC, Rockville, Md., USA):
(§5) Escherichia coli ATCC 8739 Pseudomonas aeruginosa ATCC 9027 Salmonella typhimurium ATCC 14028

The subject of assay [2] is Pseudomonas aeruginosa ATCC 9027. In kind it is cell-based. As for the experimental part:
as §1, §2, §3, §4, §5

Assay [3] deals with Escherichia coli ATCC 8739. In kind it is cell-based. The method, then:
as §1, §2, §3, §4, §5

Assay [4] deals with Staphylococcus aureus ATCC 6538. It is filed as cell-based. The method, then: as §1, §2, §3
(§6) Bacterial strains used for the antibacterial activity tests were obtained from the American Type Culture Collection (ATCC, Rockville, Md., USA): […]

Assay [5] relates to Mycobacterium phlei ATCC 41423. It is filed as cell-based. The method, then: as §1, §2, §3, §6
Assay [6] concerns Microccous luteus ATCC 9341. In kind it is cell-based, Micrococcus luteus. The method, then:
as §1, §2, §3, §6

For assay [7], the system named is Acinetobacter sp ATCC 5798. In kind it is cell-based. As for the experimental part:
as §1, §2, §3, §4
Acinetobacter sp ATCC 5798

A further assay deals with Gram positive bacteria. Briefly: Antibacterial test, summary for Gram positive bacteria. It is filed as cell-based. As to conditions: summary in words. As for the experimental part: as §1, §2, §3, §6
[8] abbreviates: MH broth pH 7.4, 24-48 h at 37° C.
The mark [9] stands for this setting: Table 2 values displayed in micromolar units.
Where [10] appears, read: Table 1 values displayed in micromolar units.

Turning to `CCCCCCCCC(=O)N[C@@H](CCCNC(=N)N)C(=O)N[C@H](C(=O)N[C@@H](CCN)C(=O)N[C@H]1CCNC(=O)[C@H]([C@@H](C)O)NC(=O)[C@H](CCN)NC(=O)[C@H](CCCNC(=N)N)NC(=O)[C@H](CC(C)C)NC(=O)[C@@H](Cc2ccccc2)NC(=O)[C@H](CCN)NC1=O)[C@@H](C)O` [(Ia1), nonanoyl-Arg-Thr-Dab-cyclo(4-10)[Dab-Dab-DPhe-Leu-Arg-Dab-Thr]] (Nonanoyl-RT[Dab][Dab][Dab][dF]LR[Dab]T; lactam 4-C), the “MIC Salmonella typhimurium 14028” value was 6.08 to 12.16 µM in assay [1] (ATCC 14028) and 8 to 16 µg/mL in assay [1] (ATCC 14028, pH 7.4). In addition, the “MIC Pseudomonas aeruginosa 9027” value in assay [2] (ATCC 9027) was 3.04 µM; in assay [2] (setting [8]) it was 4 µg/mL. Also, the figures for the “MIC Escherichia coli 8739” value in assay [3] (ATCC 8739) and in assay [3] (setting [8]) were 3.04 µM and 4 µg/mL, respectively. In addition, the “MIC Staphylococcus aureus” value came out at 24.32 µM in assay [4] (ATCC 6538) and 32 µg/mL in assay [4] (setting [8]). In addition, the “MIC Micobacterium phlei” value in assay [5] (ATCC 41423) was 6.08 to 12.16 µM; in assay [5] (ATCC 41423, pH 7.4), 8 to 16 µg/mL. Also, the results for the “MIC Micrococcus luteus” value in assay [6] (ATCC 9341) and in assay [6] (setting [8]) were 12.16 µM and 16 µg/mL, respectively. Further, the “MIC Acinetobacter sp ATCC 5798” value turned out to be 6.08 µM in assay [7] (ATCC 5798) and 8 µg/mL in assay [7] (setting [8]).

On to `CCCCCCCCC(=O)N[C@@H](CCCNC(=N)N)C(=O)N[C@H](C(=O)N[C@@H](CCN)C(=O)N[C@H]1CSSC[C@@H](C(=O)NCC(=O)N[C@@H](CCCNC(=N)N)C(=O)N[C@H](C(=O)N[C@@H](CCC(=O)O)C(=O)N[C@H](C(=O)N[C@@H](CC(C)C)C(=O)N[C@@H](Cc2ccc(O)cc2)C(=O)N[C@@H](CCCNC(=N)N)C(=O)NCC(=O)N[C@@H](CO)C(=O)N[C@@H](Cc2c[nH]c3ccccc23)C(N)=O)C(C)C)C(C)C)NC(=O)[C@H](CCN)NC(=O)[C@H](CCCNC(=N)N)NC(=O)[C@H](CC(C)C)NC(=O)[C@@H](Cc2ccccc2)NC(=O)[C@H](CCN)NC1=O)[C@@H](C)O` [(Ib3)] (Nonanoyl-RT[Dab]C[Dab][dF]LR[Dab]CGRVEVLYRGSW-NH2; disulfide 4-10), for which the entries for the “MIC Salmonella typhimurium 14028” value in assay [1] (ATCC 14028) and in assay [1] (setting [8]) were 6.06 µM and 16 µg/mL, respectively. For the same compound, the “MIC Pseudomonas aeruginosa 9027” value is above 12.12 µM in assay [2] (ATCC 9027) and above 32 µg/mL in assay [2] (ATCC 9027, pH 7.4). Besides, the “MIC Escherichia coli 8739” value in assay [3] (ATCC 8739) was found to be 6.06 µM; in assay [3] (setting [8]), 16 µg/mL. For the same compound, the “MIC Staphylococcus aureus” value in assay [4] (ATCC 6538) is 6.06 µM; in assay [4] (setting [8]), 16 µg/mL. Also, the “MIC Micobacterium phlei” value in assay [5] (ATCC 41423) was found to be 6.06 µM; in assay [5] (setting [8]), 16 µg/mL. Also, the “MIC Micrococcus luteus” value was in the range of 3.03 to 6.06 µM in assay [6] (ATCC 9341) and 8 to 16 µg/mL in assay [6] (ATCC 9341, pH 7.4). Moreover, the “MIC Acinetobacter sp ATCC 5798” value stood at 1.51 µM in assay [7] (ATCC 5798) and 4 µg/mL in assay [7] (setting [8]).

On to `CCCCCCCCC(=O)N[C@@H](CCCNC(=N)N)C(=O)N[C@H](C(=O)N[C@@H](CCN)C(=O)N[C@H]1CSSC[C@@H](C(=O)N[C@@H](CC(C)C)C(=O)N[C@@H](CCSC)C(=O)N[C@@H](Cc2c[nH]c3ccccc23)C(=O)N[C@@H](Cc2c[nH]c3ccccc23)C(=O)N[C@@H](CCSC)C(=O)N[C@@H](CC(C)C)C(N)=O)NC(=O)[C@H](CCN)NC(=O)[C@H](CCCNC(=N)N)NC(=O)[C@H](CC(C)C)NC(=O)[C@@H](Cc2ccccc2)NC(=O)[C@H](CCN)NC1=O)[C@@H](C)O` [(Ib6), nonanoyl-Arg-Thr-Dab-cyclo(S—S)[Cys-Dab-DPhe-Leu-Arg-Dab-Cys]-Leu-Met-Trp-Trp-Met-Leu] (Nonanoyl-RT[Dab]C[Dab][dF]LR[Dab]CLMWWML-NH2; disulfide 4-10), for which the “MIC Salmonella typhimurium 14028” value was above 14.56 µM in assay [1] (ATCC 14028) and above 32 µg/mL in assay [1] (ATCC 14028, pH 7.4). The “MIC Pseudomonas aeruginosa 9027” value in assay [2] (ATCC 9027) is above 14.56 µM; in assay [2] (ATCC 9027, pH 7.4) it was above 32 µg/mL. The “MIC Escherichia coli 8739” value in assay [3] (ATCC 8739) was above 14.56 µM; in assay [3] (ATCC 8739, pH 7.4), above 32 µg/mL. In addition, the “MIC Staphylococcus aureus” value in assay [4] (ATCC 6538) was determined as 7.28 µM; in assay [4] (setting [8]), 16 µg/mL. Moreover, the “MIC Micobacterium phlei” value is above 14.56 µM in assay [5] (ATCC 41423) and above 32 µg/mL in assay [5] (ATCC 41423, pH 7.4). Besides, the “MIC Micrococcus luteus” value in assay [6] (ATCC 9341) worked out at 3.64 µM; in assay [6] (setting [8]) it was 8 µg/mL. The “MIC Acinetobacter sp ATCC 5798” value in assay [7] (ATCC 5798) fell in the range of 3.64 to 7.28 µM; in assay [7] (ATCC 5798, pH 7.4) it was 8 to 16 µg/mL.

For the compound `CCCCCCCCC(=O)N[C@@H](CCCNC(=N)N)C(=O)N[C@H](C(=O)N[C@@H](CCN)C(=O)N[C@H]1CSSC[C@H](C(N)=O)NC(=O)[C@H](CCN)NC(=O)[C@H](CCCNC(=N)N)NC(=O)[C@H](CC(C)C)NC(=O)[C@@H](Cc2ccccc2)NC(=O)[C@H](CCN)NC1=O)[C@@H](C)O` [(Ib13), nonanoyl-Arg-Thr-Dab-cyclo(S—S)[Cys-Dab-DPhe-Leu-Arg-Dab-DCys]] (Nonanoyl-RT[Dab]C[Dab][dF]LR[Dab][dC]-NH2; disulfide 4-10), the “MIC Salmonella typhimurium 14028” value came out at 11.98 µM in assay [1] (ATCC 14028) and 16 µg/mL in assay [1] (setting [8]). For the same compound, the “MIC Pseudomonas aeruginosa 9027” value is 2.99 µM in assay [2] (ATCC 9027) and 4 µg/mL in assay [2] (setting [8]). Moreover, the “MIC Escherichia coli 8739” value in assay [3] (ATCC 8739) was determined as 5.99 µM; in assay [3] (setting [8]) it was 8 µg/mL. Moreover, the results for the “MIC Staphylococcus aureus” value in assay [4] (ATCC 6538) and in assay [4] (setting [8]) were 11.98 µM and 16 µg/mL, respectively. Besides, the “MIC Micobacterium phlei” value lay within 5.99 to 11.98 µM in assay [5] (ATCC 41423) and 8 to 16 µg/mL in assay [5] (ATCC 41423, pH 7.4). The “MIC Micrococcus luteus” value in assay [6] (ATCC 9341) was found to be 5.99 µM; in assay [6] (setting [8]), 8 µg/mL. For the same compound, the results for the “MIC Acinetobacter sp ATCC 5798” value in assay [7] (ATCC 5798) and in assay [7] (setting [8]) were 11.98 µM and 16 µg/mL, respectively.

Turning to `CC[C@H](C)CCCCC(=O)N[C@@H](CCN)C(=O)N[C@H](C(=O)N[C@@H](CCN)C(=O)N[C@H]1CCNC(=O)[C@H]([C@@H](C)O)NC(=O)[C@H](CCN)NC(=O)[C@H](CCN)NC(=O)[C@H](CC(C)C)NC(=O)[C@@H](Cc2ccccc2)NC(=O)[C@H](CCN)NC1=O)[C@@H](C)O` [PxB, (S)-6-methyloctanoyl-Dab-Thr-Dab-cyclo(4-10)[Dab-Dab-DPhe-Leu-Dab-Dab-Thr], reference compound] (X1-[Dab]T[Dab][Dab][Dab][dF]L[Dab][Dab]T; lactam 4-C), the “MIC Salmonella typhimurium 14028” value in assay [1] (setting [8]) worked out at 1 µg/mL; in assay [1] (setting [9]) it was 0.84 µM. In addition, the “MIC Pseudomonas aeruginosa 9027” value in assay [2] (setting [8]) amounted to 2 µg/mL; in assay [2] (setting [9]) it was 1.68 µM. Moreover, the “MIC Escherichia coli 8739” value in assay [3] (setting [8]) was 1 to 2 µg/mL; in assay [3] (setting [9]), 0.84 to 1.68 µM. Also, the “MIC Staphylococcus aureus” value in assay [4] (setting [8]) is above 32 µg/mL; in assay [4] (setting [10]), above 26.90 µM. The “MIC Micobacterium phlei” value was 32 µg/mL in assay [5] (setting [8]) and 26.90 µM in assay [5] (setting [10]). Further, the “MIC Micrococcus luteus” value in assay [6] (setting [8]) amounted to 32 µg/mL; in assay [6] (setting [10]), 26.90 µM. The “MIC Acinetobacter sp ATCC 5798” value in assay [7] (setting [8]) amounted to 0.5 µg/mL; in assay [7] (setting [9]), 0.42 µM. The “antibacterial activity in Gram positive bacteria” value in the assay with Gram positive bacteria is listed as “does not show activity against Gram positive bacteria”.

The values above are taken from patent publication US20130053305A1, “PEPTIDE COMPOUNDS THAT CAN BE USED AS ANTIBACTERIAL AGENTS” (UNIVERSIDAD DE BARCELONA, priority 2010, published 2013).
